Source: US7390875B2, “Method for binding, in solution, a peptide and a lipophilic vector and uses thereof” (Institut Pasteur de Lille, priority 2000, dated 2008)
Starred links: 1 amine or outer side, 2 acyl side, 3 side chain; linkers in the order of their positions; H or OH if unused. Hydrazinoacetyl = O=C(CNN[*:1])[*:2]

System: class II molecules of the MHC at the surface of COLO 205 cells
Assay: Quantification of the expression of class II MHC molecules at the surface of COLO 205 cells after incubation with lipopeptides (flow cytometry)
Type: cell-based, human
Details: Table IIIb; for Ratio (mean fluorescence treated vs non-treated cells): L243 antibody / ALEXA 488
Experimental: 2) Protocol for Quantification of the Expression of Molecules of Class II of the Major Histocompatibility Complex (MHC) at the Surface of the Cells.
The COLO 205 cells (human cell line obtained from a carcinoma of the colon) come from the ATCC (American Type Culture Collection) cell bank. They are cultivated in an RPMI 1640 medium (Gibco BRL, Courbevoie, France) with 10% of fetal calf serum (FCS) and 5 mM of sodium pyruvate, and incubated at 37° C. in the presence of 5% of CO2. […]
The surface expression of the class II molecules of the MHC is analysed using flow cytometry with a Coulter EPICS II cytometer, at the rate of 10,000 events per sample. The fluorescence intensity observed is directly proportional to the quantity of class II molecules of the MHC present on the surface of the cells. The mean fluorescence value observed for the non-treated cells and for the treated cells (“Mean” column in Table III) makes it possible to calculate a ratio between the mean fluorescence value of the non-treated cells and the mean fluorescence value for the treated cells (“Ratio” column in Table III). The control consists in incubating the cells in the absence of lipopeptides.

Question: Which results are given for “L-MU-IFNγc: presumably peptide Mu-IFNγ c (SEQ ID NO: 12) coupled with palmitoyl vector (IIIa); synthesis not described (H-K(Hydrazinoacetyl)AKFEVNNPQVQRQAFNELIRVVHQLLPESSLRKRKRSR-NH2; also: palmitoyl vector (IIIa) coupled by hydrazone bond)”?
Answer: Ratio (mean fluorescence treated vs non-treated cells) (5 μM lipopeptide): 2.14; Mean (mean fluorescence value) (5 μM lipopeptide, L243 antibody revealed by second antibody coupled to ALEXA 488, control mean 0.607): 1.3; Ratio (mean fluorescence treated vs non-treated cells) (10 μM lipopeptide): 2.83; Mean (mean fluorescence value) (10 μM lipopeptide, L243 antibody / ALEXA 488, control mean 0.607): 1.72; Ratio (mean fluorescence treated vs non-treated cells) (35 μM lipopeptide): 24.8; Mean (mean fluorescence value) (35 μM lipopeptide, L243 antibody / ALEXA 488, control mean 0.607): 15.1
